#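 Following 48 hours of exposure in 96-well plates, responses at five concentrations were used to interpolate endpoints linearly. GI50 is the concentration that inhibits growth by half. TGI marks complete inhibition of growth.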
# Columns and labels:
# Test in all cases: NCI tumour cell line growth inhibition, 48 h
# 786-0 renal = test system: 786-0 renal
# A498 renal = test system: A498 renal
# A549 NSCLC = test system: A549 NSCLC
# ACHN renal = test system: ACHN renal
# BT-549 breast = test system: BT-549 breast
# CAKI-1 renal = test system: CAKI-1 renal
# CCRF-CEM leukemia = test system: CCRF-CEM leukemia
# COLO 205 colon = test system: COLO 205 colon
# DU-145 prostate = test system: DU-145 prostate
# EKVX NSCLC = test system: EKVX NSCLC
# HCC-2998 colon = test system: HCC-2998 colon
# HCT-116 colon = test system: HCT-116 colon
# HCT-15 colon = test system: HCT-15 colon
# HL-60(TB) leukemia = test system: HL-60(TB) leukemia
# HOP-62 NSCLC = test system: HOP-62 NSCLC
# HOP-92 NSCLC = test system: HOP-92 NSCLC
# HS 578T breast = test system: HS 578T breast
# HT29 colon = test system: HT29 colon
# IGROV1 ovarian = test system: IGROV1 ovarian
# K-562 leukemia = test system: K-562 leukemia
# KM12 colon = test system: KM12 colon
# LOX IMVI melanoma = test system: LOX IMVI melanoma
# M14 melanoma = test system: M14 melanoma
# MCF7 breast = test system: MCF7 breast
# MDA-MB-231 breast = test system: MDA-MB-231 breast
# MDA-MB-435 = test system: MDA-MB-435
# MOLT-4 leukemia = test system: MOLT-4 leukemia
# NCI-H226 lung = test system: NCI-H226 lung
# NCI-H23 lung = test system: NCI-H23 lung
# NCI-H460 lung = test system: NCI-H460 lung
# NCI-H522 lung = test system: NCI-H522 lung
# NCI/ADR-RES ovarian = test system: NCI/ADR-RES ovarian
# OVCAR-3 ovarian = test system: OVCAR-3 ovarian
# OVCAR-4 ovarian = test system: OVCAR-4 ovarian
# OVCAR-5 ovarian = test system: OVCAR-5 ovarian
# OVCAR-8 ovarian = test system: OVCAR-8 ovarian
# PC-3 prostate = test system: PC-3 prostate
# RPMI-8226 leukemia = test system: RPMI-8226 leukemia
# RXF 393 renal = test system: RXF 393 renal
# SF-268 CNS = test system: SF-268 CNS
# SF-295 CNS = test system: SF-295 CNS
# SF-539 CNS = test system: SF-539 CNS
# SK-MEL-2 melanoma = test system: SK-MEL-2 melanoma
# SK-MEL-28 melanoma = test system: SK-MEL-28 melanoma
# SK-MEL-5 melanoma = test system: SK-MEL-5 melanoma
# SK-OV-3 ovarian = test system: SK-OV-3 ovarian
# SN12C renal = test system: SN12C renal
# SNB-19 CNS = test system: SNB-19 CNS
# SNB-75 CNS = test system: SNB-75 CNS
# SR leukemia = test system: SR leukemia
# SW-620 colon = test system: SW-620 colon
# T-47D breast = test system: T-47D breast
# TK-10 renal = test system: TK-10 renal
# U251 CNS = test system: U251 CNS
# UACC-257 melanoma = test system: UACC-257 melanoma
# UACC-62 melanoma = test system: UACC-62 melanoma
# UO-31 renal = test system: UO-31 renal
compound,measurement,setting,value
Cc1ccc(C2C3Cc4ccccc4C3=NN2c2ccc(S(=O)(=O)NC(=O)NC3CCCCC3)cc2)cc1 (centres undefined),GI50,786-0 renal,28.6 µM
same,TGI,786-0 renal,> 100 µM
same,GI50,A498 renal,22.4 µM
same,TGI,A498 renal,39.6 µM
same,GI50,A549 NSCLC,12 µM
same,TGI,A549 NSCLC,27.5 µM
same,GI50,ACHN renal,14.4 µM
same,TGI,ACHN renal,28.5 µM
same,GI50,BT-549 breast,18 µM
same,TGI,BT-549 breast,42.9 µM
same,GI50,CAKI-1 renal,16 µM
same,TGI,CAKI-1 renal,42.1 µM
same,GI50,CCRF-CEM leukemia,8.33 µM
same,TGI,CCRF-CEM leukemia,76.4 µM
same,GI50,COLO 205 colon,14.7 µM
same,TGI,COLO 205 colon,33.1 µM
same,GI50,DU-145 prostate,23.1 µM
same,TGI,DU-145 prostate,78.9 µM
same,GI50,EKVX NSCLC,20.2 µM
same,TGI,EKVX NSCLC,67.1 µM
same,GI50,HCC-2998 colon,12.6 µM
same,TGI,HCC-2998 colon,28.6 µM
same,GI50,HCT-116 colon,15.5 µM
same,TGI,HCT-116 colon,> 100 µM
same,GI50,HCT-15 colon,19.4 µM
same,TGI,HCT-15 colon,76.7 µM
same,GI50,HL-60(TB) leukemia,22.9 µM
same,TGI,HL-60(TB) leukemia,59.7 µM
same,GI50,HOP-62 NSCLC,45.7 µM
same,TGI,HOP-62 NSCLC,> 100 µM
same,GI50,HOP-92 NSCLC,11.6 µM
same,TGI,HOP-92 NSCLC,27.6 µM
same,GI50,HS 578T breast,23.6 µM
same,TGI,HS 578T breast,62.7 µM
same,GI50,HT29 colon,24.5 µM
same,TGI,HT29 colon,> 100 µM
same,GI50,IGROV1 ovarian,5.75 µM
same,TGI,IGROV1 ovarian,24.5 µM
same,GI50,K-562 leukemia,11.5 µM
same,TGI,K-562 leukemia,52.3 µM
same,GI50,KM12 colon,11.3 µM
same,TGI,KM12 colon,39.1 µM
same,GI50,LOX IMVI melanoma,17.8 µM
same,TGI,LOX IMVI melanoma,44.2 µM
same,GI50,M14 melanoma,33.5 µM
same,TGI,M14 melanoma,> 100 µM
same,GI50,MCF7 breast,13.5 µM
same,TGI,MCF7 breast,> 100 µM
same,GI50,MDA-MB-231 breast,28.2 µM
same,TGI,MDA-MB-231 breast,> 100 µM
same,GI50,MDA-MB-435,14.6 µM
same,TGI,MDA-MB-435,41.3 µM
same,GI50,MOLT-4 leukemia,7.69 µM
same,TGI,MOLT-4 leukemia,> 100 µM
same,GI50,NCI-H226 lung,21.2 µM
same,TGI,NCI-H226 lung,54.6 µM
same,GI50,NCI-H23 lung,15.2 µM
same,TGI,NCI-H23 lung,37.1 µM
same,GI50,NCI-H460 lung,21.6 µM
same,TGI,NCI-H460 lung,> 100 µM
same,GI50,NCI-H522 lung,5.92 µM
same,TGI,NCI-H522 lung,23.5 µM
same,GI50,NCI/ADR-RES ovarian,13.4 µM
same,TGI,NCI/ADR-RES ovarian,35.1 µM
same,GI50,OVCAR-3 ovarian,15 µM
same,TGI,OVCAR-3 ovarian,37.1 µM
same,GI50,OVCAR-4 ovarian,16.6 µM
same,TGI,OVCAR-4 ovarian,39.2 µM
same,GI50,OVCAR-5 ovarian,27.3 µM
same,TGI,OVCAR-5 ovarian,55.7 µM
same,GI50,OVCAR-8 ovarian,17.4 µM
same,TGI,OVCAR-8 ovarian,43.6 µM
same,GI50,PC-3 prostate,9.66 µM
same,TGI,PC-3 prostate,26.2 µM
same,GI50,RPMI-8226 leukemia,5.44 µM
same,TGI,RPMI-8226 leukemia,40.8 µM
same,GI50,RXF 393 renal,18.7 µM
same,TGI,RXF 393 renal,54.5 µM
same,GI50,SF-268 CNS,25.3 µM
same,TGI,SF-268 CNS,> 100 µM
same,GI50,SF-295 CNS,17.9 µM
same,TGI,SF-295 CNS,54.2 µM
same,GI50,SF-539 CNS,20.2 µM
same,TGI,SF-539 CNS,40.7 µM
same,GI50,SK-MEL-2 melanoma,18.6 µM
same,TGI,SK-MEL-2 melanoma,38.6 µM
same,GI50,SK-MEL-28 melanoma,19.9 µM
same,TGI,SK-MEL-28 melanoma,38 µM
same,GI50,SK-MEL-5 melanoma,14.5 µM
same,TGI,SK-MEL-5 melanoma,30.3 µM
same,GI50,SK-OV-3 ovarian,20.4 µM
same,TGI,SK-OV-3 ovarian,61.3 µM
same,GI50,SN12C renal,16.6 µM
same,TGI,SN12C renal,33.1 µM
same,GI50,SNB-19 CNS,21.3 µM
same,TGI,SNB-19 CNS,64 µM
same,GI50,SNB-75 CNS,44 µM
same,TGI,SNB-75 CNS,> 100 µM
same,GI50,SR leukemia,6.25 µM
same,TGI,SR leukemia,32.1 µM
same,GI50,SW-620 colon,16.6 µM
same,TGI,SW-620 colon,40.1 µM
same,GI50,T-47D breast,32.5 µM
same,TGI,T-47D breast,> 100 µM
same,GI50,TK-10 renal,11.7 µM
same,TGI,TK-10 renal,28.4 µM
same,GI50,U251 CNS,13.2 µM
same,TGI,U251 CNS,30.4 µM
same,GI50,UACC-257 melanoma,20.2 µM
same,TGI,UACC-257 melanoma,39.7 µM
same,GI50,UACC-62 melanoma,12.7 µM
same,TGI,UACC-62 melanoma,28.6 µM
same,GI50,UO-31 renal,11 µM
same,TGI,UO-31 renal,26.1 µM

# Reference: PubChem BioAssay (NCI)
